Results reported in US7015351B2, “Reaction systems for making N-(phosphonomethyl) glycine compounds” (Monsanto Technology LLC, priority 2000, dated 2006).

Columns and labels:
[1] = cited from earlier work
[2] = Solubility of N-(phosphonomethyl)glycine product in water / aqueous reaction mixture; format: physicochemical; conditions: oxidation operating temperatures from about 95 to about 105° C.

SMILES	maximum N-(phosphonomethyl)glycine solubility ([1]; aqueous reaction mixture, temperatures of from about 60° C. to 90° C.)	solubility relative to the free acid ([1]; at 25° C.)	concentration at which the product remains soluble [2] [% by weight]
O=C(O)CNCP(=O)(O)O [N-(phosphonomethyl)glycine]	less than 6.5%	–	–
CC(C)N.O=C(O)CNCP(=O)(O)O [isopropylamine salt of N-(phosphonomethyl)glycine]	–	roughly 40 times	≥ 50
